Assay results published in the supplement of paper PMC6045584.
± gives the standard deviation of the averaged measurements.

Experiments:
SAPACITABINE = compound: CCCCCCCCCCCCCCCC(=O)Nc1ccn([C@@H]2O[C@H](CO)[C@@H](O)[C@@H]2C#N)c(=O)n1 [SAPACITABINE]; assay: surviving fraction relative to DMSO-only wells; higher = less growth inhibition; settings: exposure time: 5 days
How it was run: (§1)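 A line counted only if its three screens reached replicate Pearson r >0.7 and median Z' >0.3. Tumour cells in log phase were seeded at 250–500 per well in 384-well plates and, after 24 hours, kept in continuous contact with inhibitors at 0.5, 1, 5, 10, 50, 100, 500 and 1000 nM for five days. Surviving fraction was taken from CellTiter-Glo luminescence relative to the median of DMSO-only wells.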

TIOGUANINE = compound: Nc1nc2[nH]cnc2c(=S)[nH]1 [TIOGUANINE]; assay: as above; settings: exposure time: 5 days
How it was run: as §1

Test System	surviving fraction (SAPACITABINE; 0.5 nM)	surviving fraction (SAPACITABINE; 1 nM)	surviving fraction (SAPACITABINE; 5 nM)	surviving fraction (SAPACITABINE; 10 nM)	surviving fraction (SAPACITABINE; 50 nM)	surviving fraction (SAPACITABINE; 100 nM)	surviving fraction (SAPACITABINE; 500 nM)	surviving fraction (SAPACITABINE; 1000 nM)	surviving fraction (TIOGUANINE; 0.5 nM)	surviving fraction (TIOGUANINE; 1 nM)	surviving fraction (TIOGUANINE; 5 nM)	surviving fraction (TIOGUANINE; 10 nM)	surviving fraction (TIOGUANINE; 50 nM)	surviving fraction (TIOGUANINE; 100 nM)	surviving fraction (TIOGUANINE; 500 nM)	surviving fraction (TIOGUANINE; 1000 nM)
ASKA SYNOVIAL	0.917 ± 0.028	0.783 ± 0.0061	0.865 ± 0.024	0.327 ± 0.053	0.911 ± 0.043	0.688 ± 0.044	0.489 ± 0.01	0.203 ± 0.014	1.07 ± 0.051	1.09 ± 0.058	1.13 ± 0.08	1.08 ± 0.032	1.1 ± 0.068	1.073 ± 0.007	1.07 ± 0.044	1.03 ± 0.011
SJSA1 BONE	1.24 ± 0.072	1.18 ± 0.095	1.19 ± 0.25	1.21 ± 0.066	1.65 ± 0.058	1.74 ± 0.087	1.65 ± 0.1	1.75 ± 0.11	1.05 ± 0.038	1.05 ± 0.092	1.033 ± 0.0062	1.01 ± 0.035	1.1 ± 0.041	1.08 ± 0.036	1.016 ± 0.0081	0.912 ± 0.019
HOSMNG BONE	0.96 ± 0.087	1.02 ± 0.032	1.06 ± 0.021	1.04 ± 0.031	1.12 ± 0.078	1.16 ± 0.016	0.948 ± 0.021	0.703 ± 0.046	0.991 ± 0.03	1.01 ± 0.029	0.988 ± 0.068	0.989 ± 0.016	1.05 ± 0.047	1.02 ± 0.089	1.04 ± 0.037	0.983 ± 0.028
KPD BONE	0.887 ± 0.013	0.886 ± 0.043	0.977 ± 0.045	0.946 ± 0.1	0.926 ± 0.024	0.815 ± 0.013	0.52 ± 0.028	0.344 ± 0.017	0.998 ± 0.045	0.985 ± 0.098	0.989 ± 0.049	1 ± 0.047	1.03 ± 0.084	1.05 ± 0.027	1.03 ± 0.019	0.993 ± 0.059
HS578T BREAST	0.81 ± 0.081	0.76 ± 0.082	0.841 ± 0.024	0.899 ± 0.077	1.13 ± 0.1	0.987 ± 0.19	0.681 ± 0.061	0.668 ± 0.13	0.998 ± 0.085	0.872 ± 0.14	0.944 ± 0.082	0.959 ± 0.075	0.923 ± 0.12	0.985 ± 0.12	1.01 ± 0.068	0.897 ± 0.17
PCI30 HEADNECK	0.899 ± 0.053	0.916 ± 0.046	0.946 ± 0.039	0.984 ± 0.051	0.965 ± 0.027	0.801 ± 0.023	0.555 ± 0.028	1.05 ± 0.13	0.892 ± 0.097	0.847 ± 0.013	0.978 ± 0.097	1.02 ± 0.047	1.02 ± 0.063	1.03 ± 0.016	0.918 ± 0.045	0.88 ± 0.072
SUM159 BREAST	0.954 ± 0.016	0.942 ± 0.01	0.947 ± 0.028	0.9227 ± 0.0074	0.935 ± 0.018	0.851 ± 0.018	0.42 ± 0.0061	0.34 ± 0.021	1.07 ± 0.14	1.02 ± 0.025	1.02 ± 0.041	1.03 ± 0.069	1.04 ± 0.075	0.97 ± 0.077	1.05 ± 0.084	1.008 ± 0.006
CAL72 BONE	0.986 ± 0.07	0.951 ± 0.041	0.91 ± 0.058	0.798 ± 0.13	0.559 ± 0.049	0.369 ± 0.12	0.181 ± 0.039	0.128 ± 0.027	1.08 ± 0.029	1.07 ± 0.027	1.09 ± 0.073	1.1 ± 0.056	1.14 ± 0.034	1.124 ± 0.0085	1.13 ± 0.029	1.13 ± 0.043
SUM149 BREAST	0.829 ± 0.11	0.666 ± 0.055	0.69 ± 0.11	0.188 ± 0.006	0.339 ± 0.031	0.22 ± 0.018	0.236 ± 0.016	0.186 ± 0.021	1.06 ± 0.068	0.998 ± 0.076	1.11 ± 0.068	1.05 ± 0.058	0.984 ± 0.029	1.06 ± 0.082	1.01 ± 0.067	1.05 ± 0.058
HS57T BREAST	0.892 ± 0.016	0.885 ± 0.028	0.904 ± 0.051	0.853 ± 0.027	0.75 ± 0.024	0.612 ± 0.045	0.325 ± 0.037	0.246 ± 0.011	0.9547 ± 0.0035	1.02 ± 0.087	0.99 ± 0.03	0.988 ± 0.029	0.928 ± 0.04	1.03 ± 0.06	0.928 ± 0.016	0.945 ± 0.064
U2OS BONE	0.921 ± 0.066	0.938 ± 0.06	0.946 ± 0.035	0.936 ± 0.067	0.939 ± 0.016	0.83 ± 0.036	0.729 ± 0.019	0.66 ± 0.032	1.03 ± 0.058	1.06 ± 0.043	1.077 ± 0.007	1.04 ± 0.018	1.08 ± 0.05	1.06 ± 0.048	0.939 ± 0.014	0.732 ± 0.042
CAL120 BREAST	0.917 ± 0.028	0.901 ± 0.047	0.893 ± 0.081	0.876 ± 0.053	0.749 ± 0.06	0.631 ± 0.038	0.428 ± 0.01	0.3798 ± 0.0035	0.912 ± 0.028	0.943 ± 0.014	0.9412 ± 0.0032	0.919 ± 0.028	0.95 ± 0.021	0.939 ± 0.02	0.88 ± 0.035	0.826 ± 0.036
C33A CERVIX	1.09 ± 0.078	0.987 ± 0.071	1.12 ± 0.026	0.981 ± 0.059	0.711 ± 0.08	0.457 ± 0.029	0.214 ± 0.024	0.142 ± 0.021	0.807 ± 0.079	0.711 ± 0.052	0.9503 ± 0.0032	0.91 ± 0.048	1.03 ± 0.092	1.02 ± 0.023	0.707 ± 0.043	0.648 ± 0.061
CASKI CERVIX	0.804 ± 0.055	0.843 ± 0.048	0.795 ± 0.026	0.746 ± 0.04	1.02 ± 0.053	0.936 ± 0.036	0.45 ± 0.019	0.268 ± 0.0036	0.902 ± 0.091	0.902 ± 0.056	0.934 ± 0.029	0.952 ± 0.032	0.9923 ± 0.0092	1.01 ± 0.014	0.962 ± 0.037	0.839 ± 0.072
MCF7 BREAST	0.826 ± 0.037	0.803 ± 0.02	0.807 ± 0.015	0.716 ± 0.022	0.923 ± 0.028	0.833 ± 0.046	0.705 ± 0.033	0.538 ± 0.0081	0.824 ± 0.015	0.804 ± 0.075	0.846 ± 0.032	0.835 ± 0.025	0.903 ± 0.045	0.875 ± 0.069	0.872 ± 0.054	0.889 ± 0.055
